From PubChem BioAssay AID248 (DTP/NCI, 2004)
Inconclusive results and toxic doses are left out.

System: L1210 leukemia ip in BDF1 mice, survival T/C
Assay: NCI In Vivo Anticancer Drug Screen. Data for tumor model L1210 Leukemia (intraperitoneal) in B6D2F1 (BDF1) mice
Conditions: endpoint: mean survival time, higher = longer survival
Outline: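 Value reflects the ratio of survival in compound-treated mice to survival in vehicle-treated controls, with both groups carrying the same transplanted tumor.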

[1] = dose: 100.0 mg/kg/injection, schedule: Q01DX009 (ip), vehicle: saline with Tween-80
[2] = dose: 200.0 mg/kg/injection, schedule: Q01DX009 (ip), vehicle: saline with Tween-80
[3] = dose: 400.0 mg/kg/injection, schedule: Q01DX009 (ip), vehicle: saline with Tween-80
[4] = dose: 100.0 mg/kg/injection, schedule: Q01DX009 (ip), vehicle: Klucel (hydroxypropylcellulose) (HPC)
[5] = dose: 400.0 mg/kg/injection, schedule: Q04DX002 (ip), vehicle: saline with Tween-80
[6] = dose: 15.0 mg/kg/injection, schedule: Q01DX Z (ip), vehicle: carboxymethylcellulose (CMC)
[7] = dose: 100.0 mg/kg/injection, schedule: Q04DX002 (ip), vehicle: saline
[8] = dose: 200.0 mg/kg/injection, schedule: Q04DX002 (ip), vehicle: saline
[9] = dose: 400.0 mg/kg/injection, schedule: Q04DX002 (ip), vehicle: saline
[10] = dose: 100.0 mg/kg/injection, schedule: Q04DX002 (ip), vehicle: Klucel (hydroxypropylcellulose) (HPC)
[11] = dose: 200.0 mg/kg/injection, schedule: Q04DX002 (ip), vehicle: Klucel (hydroxypropylcellulose) (HPC)
[12] = dose: 400.0 mg/kg/injection, schedule: Q04DX002 (ip), vehicle: Klucel (hydroxypropylcellulose) (HPC)

## COc1ccc(NC(=O)CC(C)C(=O)O)cc1 (stereo not given)
[1]
  T/C: 102 % of control
[2]
  T/C: 90 % of control
[3]
  T/C: 104 % of control

## Nc1cc2ccc(S(=O)(=O)O)cc2cc1S(=O)(=O)O
dose: 100.0 mg/kg/injection, schedule: Q04DX003 (ip), vehicle: Klucel (hydroxypropylcellulose) (HPC)
  T/C: 100 % of control
dose: 200.0 mg/kg/injection, schedule: Q04DX003 (ip), vehicle: Klucel (hydroxypropylcellulose) (HPC)
  T/C: 97 % of control
dose: 400.0 mg/kg/injection, schedule: Q04DX003 (ip), vehicle: Klucel (hydroxypropylcellulose) (HPC)
  T/C: 91 % of control

## CC1(C)N=C(N)N=C(N)N1c1cccc(OCCCOc2cccc(NC(=O)CBr)c2)c1
dose: 5.0 mg/kg/injection, schedule: Q01DX001 (ip), vehicle: saline
  T/C: 95 % of control
dose: 10.0 mg/kg/injection, schedule: Q01DX001 (ip), vehicle: saline
  T/C: 94 % of control
dose: 20.0 mg/kg/injection, schedule: Q01DX001 (ip), vehicle: saline
  T/C: 101 % of control
dose: 40.0 mg/kg/injection, schedule: Q01DX001 (ip), vehicle: saline
  T/C: 103 % of control

## Nc1[nH]c(=S)ncc1-c1ccccc1Cl
dose: 6.25 mg/kg/injection, schedule: Q01DX009 (ip), vehicle: Klucel (hydroxypropylcellulose) (HPC)
  T/C: 94 % of control
dose: 12.5 mg/kg/injection, schedule: Q01DX009 (ip), vehicle: Klucel (hydroxypropylcellulose) (HPC)
  T/C: 94 % of control
dose: 25.0 mg/kg/injection, schedule: Q01DX009 (ip), vehicle: Klucel (hydroxypropylcellulose) (HPC)
  T/C: 97 % of control
[4]
  T/C: 88 % of control

## O=C1CC2(C(=O)N1c1ccccc1)C1C(=O)N(c3ccccc3)C(=O)C1C1C3C(=CCC4C(=O)N(c5ccccc5)C(=O)C43)C=CN12 (stereo not given)
dose: 100.0 mg/kg/injection, schedule: Q04DX002 (ip), vehicle: saline with Tween-80
  T/C: 105 % of control
dose: 200.0 mg/kg/injection, schedule: Q04DX002 (ip), vehicle: saline with Tween-80
  T/C: 98 % of control
[5]
  T/C: 102 % of control

## CSC(N)=Nc1cccc(C)c1C
dose: 50.0 mg/kg/injection, schedule: Q01DX009 (ip), vehicle: saline
  T/C: 100 % of control
dose: 100.0 mg/kg/injection, schedule: Q01DX009 (ip), vehicle: saline
  T/C: 101 % of control
dose: 100.0 mg/kg/injection, schedule: Q04DX003 (ip), vehicle: saline
  T/C: 97 % of control
dose: 200.0 mg/kg/injection, schedule: Q04DX003 (ip), vehicle: saline
  T/C: 97 % of control

## O=C(Nc1cccc(C2=NCCN2)c1)c1cccc(C(=O)Nc2cccc(C3=NCCN3)c2)c1
[6]
  T/C: 103 % of control
dose: 31.0 mg/kg/injection, schedule: Q01DX Z (ip), vehicle: carboxymethylcellulose (CMC)
  T/C: 92 % of control
dose: 62.0 mg/kg/injection, schedule: Q01DX Z (ip), vehicle: carboxymethylcellulose (CMC)
  T/C: 92 % of control

## O=C1c2ccccc2C(=O)N1CNc1ccccc1/C(=N/O)c1ccccc1
dose: 87.5 mg/kg/injection, schedule: Q01DX009 (ip), vehicle: Klucel (hydroxypropylcellulose) (HPC)
  T/C: 95 % of control
dose: 175.0 mg/kg/injection, schedule: Q01DX009 (ip), vehicle: Klucel (hydroxypropylcellulose) (HPC)
  T/C: 93 % of control
dose: 350.0 mg/kg/injection, schedule: Q01DX009 (ip), vehicle: Klucel (hydroxypropylcellulose) (HPC)
  T/C: 93 % of control

## CC(=O)NC1C(Nc2ccc(S(=O)(=O)Nc3nccc(C)n3)cc2)OC(CO)C(O)C1O (stereo not given)
dose: 250.0 mg/kg/injection, schedule: Q01DX Z (ip), vehicle: methylcellulose (MC)
  T/C: 94 % of control
dose: 375.0 mg/kg/injection, schedule: Q01DX Z (ip), vehicle: methylcellulose (MC)
  T/C: 93 % of control
dose: 500.0 mg/kg/injection, schedule: Q01DX Z (ip), vehicle: methylcellulose (MC)
  T/C: 102 % of control

## CCCC(OP(=S)(OCC(Cl)CC)OCC(Cl)CC)P(=O)(OCC(Cl)CC)OCC(Cl)CC (stereo not given)
[7]
  T/C: 106 % of control
[8]
  T/C: 106 % of control
[9]
  T/C: 106 % of control

## O=C(O)c1cccc(Cl)c1
[4]
  T/C: 100 % of control
dose: 200.0 mg/kg/injection, schedule: Q01DX009 (ip), vehicle: Klucel (hydroxypropylcellulose) (HPC)
  T/C: 100 % of control
dose: 400.0 mg/kg/injection, schedule: Q01DX009 (ip), vehicle: Klucel (hydroxypropylcellulose) (HPC)
  T/C: 86 % of control

## OC1C(O)C(O)C2(CO2)C(O)C1O (stereo not given)
dose: 600.0 mg/kg/injection, schedule: Q01DX Z (ip), vehicle: saline
  T/C: 112 % of control

## O/N=C/c1ccccc1
dose: 66.0 mg/kg/injection, schedule: Q01DX009 (ip), vehicle: saline with Tween-80
  T/C: 87 % of control
[1]
  T/C: 96 % of control
dose: 150.0 mg/kg/injection, schedule: Q01DX009 (ip), vehicle: saline with Tween-80
  T/C: 95 % of control

## O=C(O)C(Br)CF (stereo not given)
[7]
  T/C: 93 % of control
[8]
  T/C: 97 % of control
[9]
  T/C: 87 % of control

## CC[C@@H]1CN(C)[C@H]2Cc3c([nH]c4ccccc34)C(=O)C[C@H]1C2C(=O)OC (stereo not given in full)
dose: 75.0 mg/kg/injection, schedule: Q01DX001 (ip), vehicle: carboxymethylcellulose (CMC)
  T/C: 97 % of control
dose: 150.0 mg/kg/injection, schedule: Q01DX001 (ip), vehicle: carboxymethylcellulose (CMC)
  T/C: 95 % of control
dose: 300.0 mg/kg/injection, schedule: Q01DX001 (ip), vehicle: carboxymethylcellulose (CMC)
  T/C: 95 % of control

## CS(=O)(=O)OCCN(CCOS(C)(=O)=O)c1ccc(C=Nc2ccc(C(=O)O)cc2)cc1
dose: 2.5 mg/kg/injection, schedule: Q04DX003 (ip), vehicle: Klucel (hydroxypropylcellulose) (HPC)
  T/C: 114 % of control
dose: 20.0 mg/kg/injection, schedule: Q04DX003 (ip), vehicle: Klucel (hydroxypropylcellulose) (HPC)
  T/C: 170 % of control
dose: 40.0 mg/kg/injection, schedule: Q04DX003 (ip), vehicle: Klucel (hydroxypropylcellulose) (HPC)
  T/C: 112 % of control

## Br[SiH](Br)Br
dose: 25.6 mg/kg/injection, schedule: Q04DX002 (ip), vehicle: saline with Tween-80
  T/C: 93 % of control
dose: 64.0 mg/kg/injection, schedule: Q04DX002 (ip), vehicle: saline with Tween-80
  T/C: 93 % of control
dose: 100.0 mg/kg/injection, schedule: Q04DX003 (ip), vehicle: saline with Tween-80
  T/C: 101 % of control
dose: 160.0 mg/kg/injection, schedule: Q04DX002 (ip), vehicle: saline with Tween-80
  T/C: 90 % of control
dose: 200.0 mg/kg/injection, schedule: Q04DX003 (ip), vehicle: saline with Tween-80
  T/C: 92 % of control
[5]
  T/C: 97 % of control
dose: 400.0 mg/kg/injection, schedule: Q04DX003 (ip), vehicle: saline with Tween-80
  T/C: 92 % of control

## CN(Cc1cccc(Cl)c1)C(=O)Nc1ccccc1
[10]
  T/C: 110 % of control
[11]
  T/C: 110 % of control
[12]
  T/C: 107 % of control

## CC(NC(=O)OCc1ccccc1)C(=O)Nc1ccc(C(=O)O)c(O)c1 (stereo not given)
[1]
  T/C: 90 % of control
[2]
  T/C: 88 % of control
[3]
  T/C: 98 % of control

## O=C(Nc1ccc(C2=NCCN2)cc1)c1cccc(C(=O)Nc2ccc(C3=NCCN3)cc2)c1O
dose: 2.5 mg/kg/injection, schedule: Q01DX Z (ip), vehicle: carboxymethylcellulose (CMC)
  T/C: 120 % of control
dose: 5.0 mg/kg/injection, schedule: Q01DX Z (ip), vehicle: carboxymethylcellulose (CMC)
  T/C: 105 % of control
dose: 7.5 mg/kg/injection, schedule: Q01DX Z (ip), vehicle: carboxymethylcellulose (CMC)
  T/C: 109 % of control
dose: 10.0 mg/kg/injection, schedule: Q01DX Z (ip), vehicle: carboxymethylcellulose (CMC)
  T/C: 157 % of control
[6]
  T/C: 259 % of control
dose: 20.0 mg/kg/injection, schedule: Q01DX Z (ip), vehicle: carboxymethylcellulose (CMC)
  T/C: 272 % of control
dose: 30.0 mg/kg/injection, schedule: Q01DX Z (ip), vehicle: carboxymethylcellulose (CMC)
  T/C: 296 % of control
dose: 31.0 mg/kg/injection, schedule: Q01DX Z (oral), vehicle: carboxymethylcellulose (CMC)
  T/C: 106 % of control
dose: 62.0 mg/kg/injection, schedule: Q01DX Z (oral), vehicle: carboxymethylcellulose (CMC)
  T/C: 102 % of control
dose: 125.0 mg/kg/injection, schedule: Q01DX Z (oral), vehicle: carboxymethylcellulose (CMC)
  T/C: 113 % of control
dose: 250.0 mg/kg/injection, schedule: Q01DX Z (oral), vehicle: carboxymethylcellulose (CMC)
  T/C: 104 % of control

## Cc1cccc(NC(=O)C(Cl)(Cl)Cl)c1
[10]
  T/C: 109 % of control
[11]
  T/C: 98 % of control
[12]
  T/C: 98 % of control

## CCCCCCCCSP(=S)(N1CC1)N1CC1
dose: 50.0 mg/kg/injection, schedule: Q01DX001 (ip), vehicle: saline
  T/C: 102 % of control
dose: 100.0 mg/kg/injection, schedule: Q01DX001 (ip), vehicle: saline
  T/C: 108 % of control
dose: 200.0 mg/kg/injection, schedule: Q01DX001 (ip), vehicle: saline
  T/C: 98 % of control
dose: 400.0 mg/kg/injection, schedule: Q01DX001 (ip), vehicle: saline
  T/C: 96 % of control
